Here are results for 5 compounds from patent US20150203498A1, “INHIBITORS OF PHOSPHODIESTERASE 10 ENZYME” (Janssen Pharmaceutica NV, priority 2012, published 2015).

Each structure is given as a SMILES string. Several values for one entry are separate records, joined by “and”; a condition that tells them apart may be missing. Identical values can stand only once.

Data set [1] relates to apomorphine-induced stereotypy. The data set is described as follows: Apomorphine-induced stereotypy in rats (APO). Format: in vivo, rat. Particulars: apomorphine 1.0 mg/kg i.v.; for ED50: Rattus norvegicus. The procedure: Apomorphine (1.0 mg/kg, i.v.)-induced stereotypy (compulsive sniffing, licking, chewing) was scored every 5 min. over the first hour after injection of apomorphine, following a 1 hour interval pre-treatment with the test compound. The score system was: (3) pronounced, (2) moderate, (1) slight, and (0) absent. Criteria for drug-induced inhibition of stereotypy: fewer than 6 scores of 3 (0.16% false positives), fewer than 6 scores of 2 (0.0% false positives), or fewer than 7 scores of 1 (0.81% false positives).

Another data set has as its target T1, hPDE10A2 (Homo sapiens, UniProt Q9Y233).
T1 construct: made in house; host or cells: Sf9 insect cells (baculovirus)
The experiment in a line: In vitro assay PDE10A, human recombinant enzyme (SPA, 3H-cAMP). Particulars: -log IC50 expressed in mol/L; 60 nM cAMP; read-out: PDE10A2 pIC50 - human enzyme (converted). The format is biochemical. On the procedure:
(§1) Human or rat recombinant PDE10A (hPDE10A2 or rPDE10A2) was expressed in Sf9 cells using a recombinant hPDE10A or rPDE10A baculovirus construct. Cells were harvested after 48 h of infection and the hPDE10A or rPDE10A protein was purified by metal chelate chromatography on Ni-sepharose 6FF. Tested compounds were dissolved and diluted in 100% DMSO to a concentration 100 fold of the final concentration in the assay. Compound dilutions (0.4 μl) were added in 384 well plates to 20 μl of incubation buffer (50 mM Tris pH 7.8, 8.3 mM MgCl2, 1.7 mM EGTA). 10 μl of hPDE10A or rPDE10A enzyme in incubation buffer was added and the reaction was started by addition of 10 μl substrate to a final concentration of 60 nM cAMP and 0.008 μCi ^3H-cAMP. The reaction was incubated for 60 min. at RT. After incubation, the reaction was stopped with 20 μl of stop solution consisting of 17.8 mg/ml PDE SPA (scintillation proximity assay) beads. After sedimentation of the beads during 30 min. the radioactivity was measured in a Perkin Elmer Topcount scintillation counter and results were expressed as cpm. For blanc values the enzyme was omitted from the reaction and replaced by incubation buffer. Control values were obtained by addition of a final concentration of 1% DMSO instead of compound. A best fit curve was fitted by a minimum sum of squares method to the plot of % of control value substracted with blanc value versus compound concentration and the half maximal inhibitory concentration (IC50) value was derived from this curve.

The test system of another data set is plasma proteins. The experiment in a line: Plasma protein binding by equilibrium dialysis. The format is in vitro ADME, human. Particulars: human plasma; for Free fraction, Average per subject: average of duplicate per subject; for Free fraction: single determinations, subjects 1-3 in duplicate, equilibrium dialysis 4 h, 37° C. On the procedure:
The plasma protein binding and blood distribution was investigated in healthy human subjects. Fresh blood was collected and centrifugated (approximately 1700 g for 10 min, room temperature, Hettich Rotixa AP centrifuge). The experiment was started within 4 hours after blood collection.
Individual blank plasma samples from three healthy male subjects, tested in duplicate, were fortified with compound la or compound lb at different concentrations (see Table 5). Plasma samples were spiked with 10 μl spike solution per ml of sample (1% ethanol (v/v)).
Fortified plasma was subjected to equilibrium dialysis (ED), for 4 h against a 0.067 M phosphate buffer, pH 7.17 at 37° C. in a Dianorm system with identical macro-1 Teflon cells and Spectra/Por® RC 2 dialysis membranes (MW cut-off 12-14 kDa). After dialysis, the contents of the two compartments of the dialysis cells were collected separately. The buffer samples were diluted with 1 mL of 5% Bovine Serum Albumin in a Phosphate buffer 0.05M, pH 7.5.
The plasma samples (before and after equilibrium dialysis) and buffer samples were analysed for compound la or compound lb using a qualified chiral LC-MS/MS assay on a API4000 mass spectrometer (Applied Biosystems).
The fraction of the unbound test compound (fu) was calculated as the ratio of the unbound concentration (Cu) in the buffer compartment to the total concentration (CED) in the protein compartment of the dialysis cells. The percentage of the free test compound was calculated as […]

In the next data set the target is T2, rPDE10A2 (Rattus norvegicus, UniProt Q9QYJ6).
T2 construct: made in house; host or cells: Sf9 insect cells (baculovirus)
T2 sequence (Q9QYJ6 1-794): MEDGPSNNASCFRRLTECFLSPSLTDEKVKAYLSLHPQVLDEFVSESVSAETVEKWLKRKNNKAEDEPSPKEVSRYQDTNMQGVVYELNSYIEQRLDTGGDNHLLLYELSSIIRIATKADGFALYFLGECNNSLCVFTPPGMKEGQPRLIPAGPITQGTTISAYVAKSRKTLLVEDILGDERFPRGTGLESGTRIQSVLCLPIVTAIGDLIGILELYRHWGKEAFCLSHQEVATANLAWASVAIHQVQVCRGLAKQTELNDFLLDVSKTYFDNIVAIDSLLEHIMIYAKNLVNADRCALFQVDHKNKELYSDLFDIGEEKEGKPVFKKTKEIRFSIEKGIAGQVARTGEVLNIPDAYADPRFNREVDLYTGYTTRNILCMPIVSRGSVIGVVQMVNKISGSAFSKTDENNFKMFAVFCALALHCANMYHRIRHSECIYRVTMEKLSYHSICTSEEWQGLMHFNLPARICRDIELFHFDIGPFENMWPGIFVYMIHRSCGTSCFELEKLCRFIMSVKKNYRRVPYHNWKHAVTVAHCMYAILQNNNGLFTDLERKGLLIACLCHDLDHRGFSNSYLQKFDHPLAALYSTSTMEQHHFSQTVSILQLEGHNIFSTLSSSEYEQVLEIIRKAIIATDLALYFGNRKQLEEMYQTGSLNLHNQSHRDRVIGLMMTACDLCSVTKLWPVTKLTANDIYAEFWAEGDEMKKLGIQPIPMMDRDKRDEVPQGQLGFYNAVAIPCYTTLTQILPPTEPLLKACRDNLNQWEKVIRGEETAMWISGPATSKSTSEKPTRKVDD
The data set is described as follows: In vitro assay PDE10A, rat recombinant enzyme (SPA, 3H-cAMP). Particulars: -log IC50 expressed in mol/L; 60 nM cAMP; read-out: PDE10A2 pIC50 - rat enzyme (converted). Format: biochemical. On the procedure:
as §1

Data set [2] is described as follows: Pharmacokinetics of oral microdose in healthy subjects. The format is in vivo, human. Particulars: single oral dose of 100 μg. From the text: The pharmacokinetics of an oral microdose of compound 1 according to the invention and compound 1 of WO2011/051342 was studied by a single-dose, open-label, parallel-group, randomized pharmacokinetic (PK) study. Each treatment group consisted of 6 subjects (healthy men between 18 to 55 years with a body mass index (BMI) between 18 and 30 kg/m^2 (inclusive) and body weight not less than 50 kg). Subjects were randomized to receive either compound 1 of WO2011/051342 or compound 1 (according to the invention) treatment.
Compound 1 of WO2011/051342 and compound 1 according to the invention were supplied as a 0.1 mg/mL oral solution containing HP-β-CD and citric acid in purified water. The pH of the solution was adjusted to pH 2.0 by the use of hydrochloric acid. Subjects were admitted to the investigational site on Day -1. Following an overnight fast of at least 10 hours, subjects received a single oral aqueous solution of […] of compound 1 of WO2011/051342 or compound 1 according to the invention, with 240 mL of noncarbonated water as per randomization in the morning of Day 1 between 7:00 AM and 10:30 AM. Drinks were not allowed from 1 hour prior until 1 hour after drug administration. Blood samples were collected at specified time points to measure compound 1 of WO2011/051342 or compound 1 (according to the invention) plasma concentrations. Subjects were discharged on Day 3 after collecting the 48-hour PK sample. Subjects returned to the clinical unit on the morning of Day 4 for the 72-hour PK blood sampling.
Venous blood samples of 6 mL for the measurement of compound 1 of WO2011/051342 or compound 1 according to the invention plasma concentrations were collected at specified time points.
Plasma samples were analyzed to determine concentrations of compound 1 of WO2011/051342 or compound 1 according to the invention using a qualified liquid chromatography/mass spectrometry/mass spectrometry (LC-MS/MS) method.
Pharmacokinetic analyses were performed for all subjects' data who received a dose of compound 1 of WO2011/051342 and compound 1 according to the invention. Plasma concentrations versus time profiles were plotted for each subject. Mean concentration versus time profiles were plotted for each compound, based on planned blood sampling times. Descriptive statistics, including arithmetic mean, standard deviation, CV, geometric mean, median, minimum, and maximum were calculated for the plasma concentrations at each sampling time and for all PK parameters of compound 1 of WO2011/051342 and compound 1 according to the invention.

The mark [3] stands for this setting: male, human, plasma, 100 ug, fasted, mean.
[4] abbreviates: iv, 1 hour pre-treatment with test compound, dose at which 50% of animals show the effect.

T1 sequence (Q9Y233 267-1055): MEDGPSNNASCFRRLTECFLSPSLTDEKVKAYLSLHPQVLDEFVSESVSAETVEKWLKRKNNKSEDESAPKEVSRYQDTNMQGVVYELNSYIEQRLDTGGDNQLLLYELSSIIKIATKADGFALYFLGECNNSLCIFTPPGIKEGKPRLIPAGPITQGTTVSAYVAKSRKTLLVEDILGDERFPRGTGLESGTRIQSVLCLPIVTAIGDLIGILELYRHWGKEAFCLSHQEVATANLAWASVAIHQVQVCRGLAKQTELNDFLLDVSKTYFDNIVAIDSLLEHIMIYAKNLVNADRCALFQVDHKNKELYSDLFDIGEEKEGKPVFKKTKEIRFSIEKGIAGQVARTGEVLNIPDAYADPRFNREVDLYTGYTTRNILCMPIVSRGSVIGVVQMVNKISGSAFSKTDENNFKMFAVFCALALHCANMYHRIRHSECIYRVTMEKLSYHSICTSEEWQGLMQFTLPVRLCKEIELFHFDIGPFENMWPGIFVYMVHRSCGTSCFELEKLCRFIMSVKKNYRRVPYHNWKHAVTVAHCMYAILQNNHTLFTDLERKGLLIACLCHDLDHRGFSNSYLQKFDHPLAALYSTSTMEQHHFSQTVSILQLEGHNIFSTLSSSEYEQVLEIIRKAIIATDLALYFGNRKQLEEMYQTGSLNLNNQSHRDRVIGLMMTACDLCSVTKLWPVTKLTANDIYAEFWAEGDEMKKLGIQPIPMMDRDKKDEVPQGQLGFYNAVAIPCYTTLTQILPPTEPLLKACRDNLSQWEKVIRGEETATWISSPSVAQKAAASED

In turn, `COCC(O)c1ccc(-c2c(C)nc3c(N4CCOCC4)ccnn23)cn1` (single isomer, unassigned) [Compound 1b] displayed a melting point of 135.7 °C. The “APO ED50” value in data set [1] (1 hour pre-treatment with test compound, dose at which 50% of animals show the effect) was 1.2 mg/kg. In addition, the IC50 on hPDE10A2 is 60.3 nM. In addition, in the data set on plasma proteins (0.1 μg/ml), the “Average percentage of free compound in plasma” value worked out at 53.4%; the “Free fraction, Average per subject” value is 54.0% and 56.3% and 50.0%; the Free fraction was 55.2% and 57.4% and 46.9% and 53.1% and 54.9%. Further, in the data set with plasma proteins (13 μg/ml), the “Average percentage of free compound in plasma” value came out at 50.9%; the “Free fraction, Average per subject” value was 52.6% and 49.6% and 50.5%; the Free fraction is 52.7% and 46.6% and 51.4% and 49.7% and 51.9% and 53.3%. In the data set on plasma proteins (0.1 and 13 μg/ml pooled, three subjects in duplicate), the “Free fraction, Average (S.D.) (n = 12)” value is given as 52.2 (3.2) %. The “Concentration dependency in the plasma protein binding” value in the data set with plasma proteins (within the concentration range tested) is reported as “No relevant concentration dependency”. The IC50 on rPDE10A2 was 50.1 nM.

The compound `COCC(O)c1ccc(-c2c(C)nc3c(N4CCOCC4)ccnn23)cn1` (centres unmarked) [Compound 1, 2-Methoxy-1-[5-(2-methyl-8-morpholin-4-ylimidazo[1,2-b]pyridazin-3-yl)pyridin-2-yl]ethanol] registered a melting point of 137.2 °C. Also, the median effective dose (ED50) in data set [1] (compound dosed orally, 1 hour pre-treatment) is 1 mg/kg. Moreover, at hPDE10A2, the IC50 was 64.6 nM. Besides, in data set [2] (male, human, plasma, 100 ug, fasted, Median (Min-Max)), the time of peak concentration (Tmax) was 0.64 h. In addition, in data set [2] (setting [3]), the area under the curve AUC(0-inf) was 2.64 ng·h/mL, the AUC(0-t) was 2.61 ng·h/mL, the highest level (Cmax) was 0.758 ng/mL and the Vd/F was determined as 333 ± 117 L. For the same compound, the half-life in data set [2] (setting [3]) is 5.7 h. For the same compound, in data set [2], the “Cl/F, fold lower compared to compound 1 of WO2011/051342” value is reported as “approximately 3.8 fold” and the “Vd/F, fold lower compared to compound 1 of WO2011/051342” value is “approximately 3.5 fold”. For the same compound, in data set [2] (fasted, mean), the apparent clearance CL/F is 47.9 ± 24.6 L/h and 47.9 L/h; the λz was 0.148 h⁻¹. Moreover, at rPDE10A2, the IC50 was 55 nM.

`COCC(O)c1ccc(-c2c(C)nc3c(N4CCOCC4)nccn23)cn1` (centres unmarked) [Compound 2, 2-Methoxy-1-[5-(2-methyl-8-morpholin-4-ylimidazo[1,2-a]pyrazin-3-yl)pyridin-2-yl]ethanol]: the melting point amounted to 106.9 °C. The ED50 in data set [1] (setting [4]) worked out at 0.31 mg/kg. In addition, at hPDE10A2, the IC50 is 263 nM.

`Cc1nc2c(N3CCOCC3)ccnn2c1-c1ccc(C2(O)CCOCC2)nc1` [Compound 3, 4-[5-(2-Methyl-8-morpholin-4-ylimidazo[1,2-b]pyridazin-3-yl)pyridin-2-yl]tetrahydro-2H-pyran-4-ol] yielded a melting point of 189.2 °C. Besides, the ED50 in data set [1] (setting [4]) was determined as 0.31 mg/kg. On hPDE10A2, the IC50 is 27.5 nM.

`Cc1nc2c(N3CCOCC3)nccn2c1-c1ccc(C2(O)CCOCC2)nc1` [Compound 4, 4-[5-(2-Methyl-8-morpholin-4-ylimidazo[1,2-a]pyrazin-3-yl)pyridin-2-yl]tetrahydro-2H-pyran-4-ol] gave a melting point of 181.6 °C. The ED50 in data set [1] (setting [4]) came out at 0.31 mg/kg. Moreover, the IC50 at hPDE10A2 was 112 nM.
